Measurements published in the CheMixHub viscosity set.

Assay: xn = mol fraction of the nth substance listed

O=[PH2][O-].[Na+] + O
Details	viscosity [mPa·s]
298.15 K, 101 kPa, x1 = 0.2095	4.83

O=c1[nH]c2nc(O)nc(O)c2[nH]1 + O
viscosity [mPa·s], 101.3 kPa
Details	298.15 K	303.15 K	308.15 K	313.15 K
x1 = 1e-06	0.9	0.82	0.73	0.63
x1 = 2e-06	0.9	0.83	0.75	0.65
x1 = 3e-06	0.91	0.84	0.76	0.66

[Cl-].[Cl-].[Mn+2] + O
Details	viscosity [mPa·s]
298.15 K, 101.33 kPa, x1 = 0.09931	8.35

[K+].[OH-] + O
323.15 K, 101 kPa
Details	viscosity [mPa·s]
x1 = 0.009	0.586
x1 = 0.026	0.67
x1 = 0.059	0.853
x1 = 0.08	1.01
x1 = 0.1	1.26
x1 = 0.2	1.75
x1 = 0.21	2.84
x1 = 0.3	4.62

O=C(O)c1ccco1 + O=C1CCCCCN1
101 kPa, x2 = 0.5
Details	viscosity [mPa·s]
303.1 K	179.6
313.2 K	79.63
323.1 K	44.44

Cn1c(=O)c2c(ncn2C)n(C)c1=O + OCCO
viscosity [mPa·s], 100 kPa
Details	293.15 K	298.15 K	303.15 K	308.15 K	313.15 K	318.15 K	323.15 K
x1 = 0.00056	20.79	16.86	13.79	11.41	9.55	8.092	6.902
x1 = 0.00112	20.75	16.8	13.77	11.36	9.528	8.07	6.89
x1 = 0.00166	20.69	16.76	13.72	11.34	9.492	8.048	6.866
x1 = 0.00222	20.64	16.71	13.67	11.3	9.464	8.019	6.833
x1 = 0.00285	20.57	16.66	13.63	11.27	9.426	7.982	6.805
x1 = 0.00335	20.53	16.63	13.59	11.23	9.403	7.965	6.785

CC(C)c1ccccc1 + c1ccccc1
Details	viscosity [mPa·s]
293.15 K, 101.33 kPa, x2 = 0.3728	0.721
293.15 K, 101.33 kPa, x2 = 0.5889	0.693
293.15 K, 101.33 kPa, x2 = 0.8176	0.66
293.15 K, 101.33 kPa, x2 = 0.9057	0.653
303.15 K, 101.3 kPa, x2 = 0.1245	0.6683
303.15 K, 101.3 kPa, x2 = 0.2644	0.6483
303.15 K, 101.3 kPa, x2 = 0.4246	0.6265
303.15 K, 101.3 kPa, x2 = 0.5391	0.6111
303.15 K, 101.3 kPa, x2 = 0.5606	0.6069
303.15 K, 101.3 kPa, x2 = 0.6382	0.5972
303.15 K, 101.3 kPa, x2 = 0.6478	0.5958
303.15 K, 101.3 kPa, x2 = 0.7409	0.5819
303.15 K, 101.3 kPa, x2 = 0.831	0.5721
303.15 K, 101.3 kPa, x2 = 0.919	0.5634
303.15 K, 101.33 kPa, x2 = 0.3728	0.63
303.15 K, 101.33 kPa, x2 = 0.5889	0.607
303.15 K, 101.33 kPa, x2 = 0.8176	0.575
303.15 K, 101.33 kPa, x2 = 0.9057	0.563
313.15 K, 101.33 kPa, x2 = 0.3728	0.56
313.15 K, 101.33 kPa, x2 = 0.5889	0.537
313.15 K, 101.33 kPa, x2 = 0.8176	0.512
313.15 K, 101.33 kPa, x2 = 0.9057	0.496
323.15 K, 101.33 kPa, x2 = 0.3728	0.499
323.15 K, 101.33 kPa, x2 = 0.5889	0.479
323.15 K, 101.33 kPa, x2 = 0.8176	0.454
323.15 K, 101.33 kPa, x2 = 0.9057	0.441

CCCCCCCC(=O)O + c1ccccc1
298.15 K, 101 kPa
Details	viscosity [mPa·s]
x1 = 0.03	0.638
x1 = 0.057	0.68
x1 = 0.087	0.727
x1 = 0.12	0.781
x1 = 0.27	1.072
x1 = 0.35	1.295
x1 = 0.45	1.591
x1 = 0.68	2.505

CCCCOC(C)=O + c1ccccc1
viscosity [mPa·s], 101 kPa
Details	298.15 K	308.15 K
x1 = 0.0487	0.601	0.527
x1 = 0.1494	0.598	0.528
x1 = 0.2494	0.598	0.532
x1 = 0.3494	0.6	0.536
x1 = 0.4454	0.604	0.541
x1 = 0.4954	0.607	0.544
x1 = 0.5489	0.611	0.548
x1 = 0.6497	0.62	0.556
x1 = 0.7503	0.632	0.565
x1 = 0.8496	0.647	0.575
x1 = 0.9424	0.663	0.586

CCCN + c1ccccc1
viscosity [mPa·s], 101 kPa
Details	x1 = 0.007866	x1 = 0.01864	x1 = 0.02795	x1 = 0.03664	x1 = 0.04697	x1 = 0.0579	x1 = 0.06586	x1 = 0.07593	x1 = 0.08436
303.15 K	0.5618	0.5605	0.5588	0.5574	0.5554	0.5534	0.552	0.5501	0.548
313.15 K	0.4898	0.4864	0.4837	0.4817	0.4766	0.4725	0.4704	0.467	0.4636

OCCc1ccccc1 + c1ccccc1
293.15 K, 101.32 kPa
Details	viscosity [mPa·s]
x1 = 0.01771	0.6624
x1 = 0.04031	0.6965
x1 = 0.0739	0.7584
x1 = 0.1095	0.8402
x1 = 0.1585	0.985

Oc1ccccc1Cl + c1ccncc1
viscosity [mPa·s], 101 kPa
Details	293.15 K	303.15 K	313.15 K
x1 = 0.07182	1.158	0.994	0.863
x1 = 0.1451	1.459	1.249	1.073
x1 = 0.2211	1.903	1.588	1.351
x1 = 0.311	2.62	2.152	1.773
x1 = 0.395	3.69	2.96	2.31
x1 = 0.4815	5.28	3.92	2.98
x1 = 0.5607	6.82	4.72	3.53
x1 = 0.6186	7.8	5.22	3.78
x1 = 0.6723	8.23	5.4	3.84
x1 = 0.7248	8.16	5.36	3.78
x1 = 0.7794	7.58	5.04	3.55
x1 = 0.8837	5.97	4.11	2.94
